Data from ChEMBL document CHEMBL1201862, “PubChem BioAssay data set” (2004).
Activity calls are given as the source filed them.

Tests used:
[1] = molecular target: Voltage-gated N-type calcium channel alpha-1B subunit/Amyloid beta A4 precursor protein-binding family A member 1 (Homo sapiens, UniProt Q00975+Q02410); type: protein assay
[2] = molecular target: T1, Calpain-2 catalytic subunit (Sus scrofa, UniProt P43367); experiment: pig calpain II inhibitor potency, dose response, biochemical, fluorogenic peptide substrate (AID 1420); type: functional
T1 sequence (P43367 whole entry): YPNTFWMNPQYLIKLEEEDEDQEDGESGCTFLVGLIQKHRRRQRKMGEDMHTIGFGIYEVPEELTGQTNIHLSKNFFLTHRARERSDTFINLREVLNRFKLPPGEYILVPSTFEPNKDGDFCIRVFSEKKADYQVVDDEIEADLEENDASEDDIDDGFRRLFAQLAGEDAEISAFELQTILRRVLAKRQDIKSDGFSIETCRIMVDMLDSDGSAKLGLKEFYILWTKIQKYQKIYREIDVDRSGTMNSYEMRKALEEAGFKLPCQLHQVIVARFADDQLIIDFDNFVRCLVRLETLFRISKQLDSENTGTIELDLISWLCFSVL

[3] = molecular target: T2, Dual specificity protein phosphatase 6 (Rattus norvegicus, UniProt Q64346); experiment: MKP-3 phosphatase inhibitors, primary screen, biochemical, rat enzyme, in vitro (AID 425)
T2 sequence (Q64346 whole entry): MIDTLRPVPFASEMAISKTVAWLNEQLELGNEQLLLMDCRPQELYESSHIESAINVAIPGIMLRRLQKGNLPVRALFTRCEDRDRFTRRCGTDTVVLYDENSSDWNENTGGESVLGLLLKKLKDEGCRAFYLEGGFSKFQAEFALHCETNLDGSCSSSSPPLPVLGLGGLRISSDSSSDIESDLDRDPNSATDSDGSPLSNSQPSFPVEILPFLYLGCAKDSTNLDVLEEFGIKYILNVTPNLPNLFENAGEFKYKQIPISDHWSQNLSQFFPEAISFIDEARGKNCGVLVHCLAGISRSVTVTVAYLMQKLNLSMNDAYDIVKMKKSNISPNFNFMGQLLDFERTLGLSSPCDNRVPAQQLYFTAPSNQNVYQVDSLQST

[4] = HEp-2 cell cytotoxicity, dose response, cytotoxicity control for RSV inhibitor project, HTS (AID 2410); type: functional; conditions: human respiratory syncytial virus
[5] = molecular target: T3, Dual specificity protein phosphatase 3 (Homo sapiens, UniProt P51452); experiment: VHR1 phosphatase inhibitors, biochemical (AID 1878)
T3 sequence (P51452 whole entry): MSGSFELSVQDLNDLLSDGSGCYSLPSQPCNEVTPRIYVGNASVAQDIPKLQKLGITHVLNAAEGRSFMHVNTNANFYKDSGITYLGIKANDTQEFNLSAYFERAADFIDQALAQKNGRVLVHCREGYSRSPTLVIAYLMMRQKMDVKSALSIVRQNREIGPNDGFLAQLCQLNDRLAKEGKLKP

[6] = molecular target: T3, Dual specificity protein phosphatase 3; experiment: VHR1 phosphatase inhibitors, primary screen, biochemical, absorbance, uHTS (AID 1654)
[7] = molecular target: Eukaryotic translation initiation factor 4E (Mus musculus, UniProt P63073); experiment: eIF4E–eIF4G protein interaction inhibitors, dose response, biochemical, TR-FRET (AID 855); type: functional;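 note: potency for disrupting eIF4E binding to eIF4GI seen as loss of FRET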
Sequence of Eukaryotic translation initiation factor 4E (P63073 whole entry): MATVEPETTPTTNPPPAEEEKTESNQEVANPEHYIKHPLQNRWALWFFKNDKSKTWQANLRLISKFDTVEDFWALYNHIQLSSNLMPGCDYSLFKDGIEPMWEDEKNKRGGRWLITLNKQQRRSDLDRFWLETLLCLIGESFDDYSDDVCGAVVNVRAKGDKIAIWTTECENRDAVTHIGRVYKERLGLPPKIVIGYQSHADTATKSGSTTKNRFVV

[8] = molecular target: T4, Tyrosine-protein phosphatase non-receptor type 22 (Homo sapiens, UniProt Q9Y2R2); experiment: SAR LYP1 Fluorescent Assay using OMFP substrate for In Vitro dose response studies - Set 3. [Related pubchem assays (depositor defined):AID1779, AID1784, AID2140, AID2686]; type: functional
T4 sequence (Q9Y2R2 whole entry): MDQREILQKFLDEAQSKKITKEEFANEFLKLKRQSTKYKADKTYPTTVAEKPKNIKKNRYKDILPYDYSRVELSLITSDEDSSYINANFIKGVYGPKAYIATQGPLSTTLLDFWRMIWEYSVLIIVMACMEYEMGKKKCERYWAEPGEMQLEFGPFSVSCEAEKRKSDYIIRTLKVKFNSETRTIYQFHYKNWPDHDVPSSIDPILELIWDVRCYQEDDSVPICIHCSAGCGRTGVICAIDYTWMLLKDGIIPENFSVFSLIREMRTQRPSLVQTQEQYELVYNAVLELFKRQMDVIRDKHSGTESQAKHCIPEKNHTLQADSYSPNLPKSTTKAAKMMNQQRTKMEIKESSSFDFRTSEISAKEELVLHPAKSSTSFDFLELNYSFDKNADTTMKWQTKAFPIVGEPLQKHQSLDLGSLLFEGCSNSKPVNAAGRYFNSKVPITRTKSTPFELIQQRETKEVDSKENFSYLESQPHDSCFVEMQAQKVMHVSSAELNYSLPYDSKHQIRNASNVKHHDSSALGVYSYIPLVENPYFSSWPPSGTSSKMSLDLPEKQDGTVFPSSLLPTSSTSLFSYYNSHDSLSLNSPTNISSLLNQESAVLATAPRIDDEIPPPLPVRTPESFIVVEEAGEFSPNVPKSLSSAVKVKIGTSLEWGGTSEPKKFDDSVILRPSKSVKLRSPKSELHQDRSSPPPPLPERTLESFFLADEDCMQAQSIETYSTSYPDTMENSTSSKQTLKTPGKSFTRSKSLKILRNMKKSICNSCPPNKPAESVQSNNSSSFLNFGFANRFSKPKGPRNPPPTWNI

[9] = molecular target: G-protein coupled receptor 55 (Homo sapiens, UniProt Q9Y2T6); experiment: GPR55 antagonists, SAR follow-up, counter-screen for GPR35 antagonist project, imaging, image-based (AID 2397); type: functional
Sequence of G-protein coupled receptor 55 (Q9Y2T6 whole entry): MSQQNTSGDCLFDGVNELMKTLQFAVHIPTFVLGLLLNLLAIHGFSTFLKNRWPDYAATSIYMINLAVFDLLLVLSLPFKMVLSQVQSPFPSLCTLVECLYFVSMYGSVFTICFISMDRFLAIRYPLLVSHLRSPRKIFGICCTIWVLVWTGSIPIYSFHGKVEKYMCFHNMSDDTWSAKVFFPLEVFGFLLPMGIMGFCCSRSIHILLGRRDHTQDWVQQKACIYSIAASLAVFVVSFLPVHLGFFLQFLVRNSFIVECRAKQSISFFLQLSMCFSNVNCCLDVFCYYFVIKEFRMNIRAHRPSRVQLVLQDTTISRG

[10] = molecular target: T4, Tyrosine-protein phosphatase non-receptor type 22; experiment: LYP (PTPN22) phosphatase inhibitor potency, SAR follow-up, biochemical, pCAP fluorogenic substrate, fluorescence, set 3 (AID 449727); type: functional
[11] = molecular target: Tyrosine-protein phosphatase non-receptor type 12 (Homo sapiens, UniProt Q05209); experiment: SAR Selectivity Analysis of small molecule inhibitors of PEST using pCAP in a fluorescence assay. [Related pubchem assays (depositor defined):AID1779, AID1784, AID2135]; type: functional
Sequence of Tyrosine-protein phosphatase non-receptor type 12 (Q05209 whole entry): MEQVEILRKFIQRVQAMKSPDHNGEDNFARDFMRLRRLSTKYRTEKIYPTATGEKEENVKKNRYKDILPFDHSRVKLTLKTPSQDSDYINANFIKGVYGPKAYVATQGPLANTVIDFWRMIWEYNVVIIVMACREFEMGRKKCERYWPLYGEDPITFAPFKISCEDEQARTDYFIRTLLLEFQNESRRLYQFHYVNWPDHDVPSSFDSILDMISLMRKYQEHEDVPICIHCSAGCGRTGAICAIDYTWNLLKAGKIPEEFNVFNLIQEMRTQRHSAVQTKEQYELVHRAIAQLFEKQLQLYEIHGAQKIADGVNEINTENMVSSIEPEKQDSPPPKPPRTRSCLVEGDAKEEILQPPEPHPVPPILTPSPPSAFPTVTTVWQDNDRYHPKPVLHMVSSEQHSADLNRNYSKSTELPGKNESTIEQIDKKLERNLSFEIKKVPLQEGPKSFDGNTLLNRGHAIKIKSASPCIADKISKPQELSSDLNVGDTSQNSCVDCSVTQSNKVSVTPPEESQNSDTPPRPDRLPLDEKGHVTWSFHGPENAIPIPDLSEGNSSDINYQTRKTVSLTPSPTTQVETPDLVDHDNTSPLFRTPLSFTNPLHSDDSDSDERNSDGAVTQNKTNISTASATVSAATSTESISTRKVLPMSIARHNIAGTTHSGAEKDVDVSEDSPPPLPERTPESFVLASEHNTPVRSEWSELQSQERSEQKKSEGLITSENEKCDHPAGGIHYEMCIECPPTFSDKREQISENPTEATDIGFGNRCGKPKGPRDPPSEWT

[12] = molecular target: T5, Short transient receptor potential channel 4 (Mus musculus, UniProt Q9QUQ5); experiment: mouse TRPC4 channel inhibitors, dose response, cell-based, HEK293 TRPC4/mu-opioid, Fluo-4 calcium (AID 434942); type: functional;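 note: potency of inhibitors blocking the TRPC4 calcium response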
T5 sequence (Q9QUQ5 whole entry): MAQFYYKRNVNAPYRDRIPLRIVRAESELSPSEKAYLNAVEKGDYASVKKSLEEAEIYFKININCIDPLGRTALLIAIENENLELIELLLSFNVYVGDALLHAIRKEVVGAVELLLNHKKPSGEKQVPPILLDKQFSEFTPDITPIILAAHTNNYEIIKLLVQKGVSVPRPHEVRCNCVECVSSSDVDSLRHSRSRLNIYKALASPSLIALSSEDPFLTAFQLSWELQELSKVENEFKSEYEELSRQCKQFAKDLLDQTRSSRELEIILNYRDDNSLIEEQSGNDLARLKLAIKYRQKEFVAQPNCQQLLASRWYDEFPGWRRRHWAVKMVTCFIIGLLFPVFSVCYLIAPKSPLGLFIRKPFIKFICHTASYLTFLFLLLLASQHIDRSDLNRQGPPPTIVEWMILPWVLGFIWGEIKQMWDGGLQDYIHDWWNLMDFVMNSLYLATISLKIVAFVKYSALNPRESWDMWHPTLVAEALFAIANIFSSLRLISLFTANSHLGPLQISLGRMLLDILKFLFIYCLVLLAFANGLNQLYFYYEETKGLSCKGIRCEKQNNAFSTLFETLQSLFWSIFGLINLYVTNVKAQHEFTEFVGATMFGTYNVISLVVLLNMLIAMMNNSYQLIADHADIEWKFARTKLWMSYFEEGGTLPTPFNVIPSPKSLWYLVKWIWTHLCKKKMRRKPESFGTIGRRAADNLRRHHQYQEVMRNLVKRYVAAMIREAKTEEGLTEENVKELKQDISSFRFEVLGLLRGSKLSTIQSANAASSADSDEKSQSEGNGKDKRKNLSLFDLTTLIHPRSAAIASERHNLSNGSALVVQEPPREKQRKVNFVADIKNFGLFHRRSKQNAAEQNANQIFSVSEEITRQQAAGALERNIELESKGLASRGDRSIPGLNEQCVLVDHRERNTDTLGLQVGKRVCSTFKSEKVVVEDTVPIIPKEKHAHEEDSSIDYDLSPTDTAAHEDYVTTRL

cells [13] = type: functional, cell-based
Nonstructural protein 1 = Nonstructural protein 1 (Influenza A virus, UniProt Q194T2); type: functional, Influenza A virus (A/California/07/2009(H1N1))
Sequence of Nonstructural protein 1 (Q194T2 whole entry): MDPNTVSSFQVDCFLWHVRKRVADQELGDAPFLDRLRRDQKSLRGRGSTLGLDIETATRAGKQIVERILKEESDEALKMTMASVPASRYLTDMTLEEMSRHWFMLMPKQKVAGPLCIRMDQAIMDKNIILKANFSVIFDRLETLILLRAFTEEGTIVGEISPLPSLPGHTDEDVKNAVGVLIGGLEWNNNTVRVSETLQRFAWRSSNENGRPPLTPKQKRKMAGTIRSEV

[14] = tested on: Streptococcus sp. 'group A'; experiment: growth inhibition of control SK(-) GAS strain, dose response, counter-screen for streptokinase expression inhibitor project, luminescence, kanamycin, BacTiterGlo, confirmation (AID 1900); type: functional, organism-based
[15] = control 3'UTR Renilla luciferase suppression, dose response, counter-screen for Shn3 inhibitor project, cell-based, Clone20-Shn3RL, cherry-picked (AID 624133); type: functional
[16] = growth suppression of PTEN-null colon cells, dose response, cell-based, HCT116 PTEN knockout (AID 1047); type: functional;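 note: HCT116 colon tumor cells with PTEN knocked out; cells exposed to compound for 60 hours before readout; potency for loss of cell viability measured by luminescence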
Mu-type opioid receptor = Mu-type opioid receptor (Homo sapiens, UniProt P35372); experiment: HTS Image-Based Screen for Agonists of the MOR Receptor. [Related pubchem assays (depositor defined):AID1777, AID1785, AID1786, AID2133]; type: functional;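 note: imaging of beta-arrestin GFP recruitment into spots after receptor activation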
Sequence of Mu-type opioid receptor (P35372 whole entry): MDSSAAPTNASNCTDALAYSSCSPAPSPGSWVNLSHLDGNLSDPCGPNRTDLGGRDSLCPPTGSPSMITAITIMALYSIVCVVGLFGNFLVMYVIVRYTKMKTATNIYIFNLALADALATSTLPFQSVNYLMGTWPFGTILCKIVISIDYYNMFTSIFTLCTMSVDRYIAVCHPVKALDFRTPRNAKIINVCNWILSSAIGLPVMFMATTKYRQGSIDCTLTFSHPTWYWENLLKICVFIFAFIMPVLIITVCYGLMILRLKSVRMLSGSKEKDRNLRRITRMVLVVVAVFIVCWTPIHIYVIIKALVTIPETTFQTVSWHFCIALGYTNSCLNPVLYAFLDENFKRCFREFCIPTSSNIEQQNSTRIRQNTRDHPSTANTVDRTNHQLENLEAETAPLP

[17] = Shn3 3'UTR reporter inhibitors, dose response, cell-based, Clone20 osteoblasts, firefly luciferase, cherry-picked (AID 624132); type: functional;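 note: firefly luciferase luminescence from reporter carrying the Shn3 3'UTR in osteoblasts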
[18] = inhibitors of intracellular T. cruzi replication, confirmation, NIH3T3 host cells, beta-gal luminescence (AID 2044); type: functional, cell-based;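 note: intracellular parasites grown in NIH/3T3 mouse fibroblasts as host cells; luminescent beta-galactosidase reporter signal from transgenic T. cruzi replicating inside host cells; inhibitors lower the luminescence signal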
[19] = molecular target: T6, Kappa-type opioid receptor (Homo sapiens, UniProt P41145); type: functional
T6 sequence (P41145 whole entry): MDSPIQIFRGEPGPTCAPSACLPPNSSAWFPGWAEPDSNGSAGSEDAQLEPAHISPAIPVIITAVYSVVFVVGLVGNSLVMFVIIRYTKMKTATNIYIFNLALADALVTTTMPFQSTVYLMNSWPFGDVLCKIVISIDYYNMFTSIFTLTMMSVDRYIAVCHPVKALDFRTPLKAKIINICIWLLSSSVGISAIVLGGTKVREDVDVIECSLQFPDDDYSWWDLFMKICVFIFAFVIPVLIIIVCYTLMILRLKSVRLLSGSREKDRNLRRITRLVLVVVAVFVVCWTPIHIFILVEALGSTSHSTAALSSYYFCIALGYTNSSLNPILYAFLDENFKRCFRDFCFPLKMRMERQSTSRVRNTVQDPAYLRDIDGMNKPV

[20] = inhibitors of firefly luciferase expression or activity, dose response, H4 neuroglioma cells, luminescence (AID 1990); type: functional, cell-based
[21] = inhibitors of SNCA 5'UTR-driven reporter translation, confirmation, H4 neuroglioma cells, luminescence (AID 1988); type: functional, cell-based
[22] = molecular target: T7, Delta-type opioid receptor (Homo sapiens, UniProt P41143); experiment: HTS Image-Based Screen for Agonists of the DOR Receptor. [Related pubchem assays (depositor defined):AID1777, AID1786, AID2133]; type: functional
T7 sequence (P41143 whole entry): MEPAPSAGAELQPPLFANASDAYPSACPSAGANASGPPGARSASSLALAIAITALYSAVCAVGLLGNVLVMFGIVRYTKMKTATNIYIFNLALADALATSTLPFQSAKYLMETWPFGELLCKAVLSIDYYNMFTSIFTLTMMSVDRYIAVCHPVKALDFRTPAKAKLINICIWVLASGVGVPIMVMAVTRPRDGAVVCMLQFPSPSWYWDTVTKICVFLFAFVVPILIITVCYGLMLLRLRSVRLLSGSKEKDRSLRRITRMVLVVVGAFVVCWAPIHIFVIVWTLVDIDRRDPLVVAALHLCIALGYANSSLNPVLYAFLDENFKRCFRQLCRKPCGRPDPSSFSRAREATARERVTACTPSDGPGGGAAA

[23] = growth suppression of beta-catenin-knockout colon cells, dose response, cell-based, HCT116, human colon tumor (AID 1045); type: functional;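 note: HCT116 colon tumor cells with beta catenin knocked out; cells exposed to compound for 60 hours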
[24] = cytotoxicity in MIN6 insulinoma cells, dose response, cytotoxicity control, cell-based, mouse insulinoma (AID 2122); type: functional;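 note: confirmatory high-throughput counterscreen run to flag cytotoxic compounds; mouse MIN-6 beta cells carrying an insulin promoter eGFP reporter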
[25] = molecular target: T7, Delta-type opioid receptor; experiment: HTS Image-Based Screen for Antagonists of the DOR Receptor. [Related pubchem assays (depositor defined):AID1777, AID1785, AID1786, AID2133]; type: functional
INS1 = experiment: beta cell apoptosis inhibitors, cytokine rescue, dose response, luminescence, retest (AID 449756); type: functional, cell-based; conditions: Rattus norvegicus;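 note: cell death triggered by IL-1 beta plus TNF-alpha plus IFN-gamma mixture; protective hits raise ATP signal compared with cytokine alone wells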
[26] = cytotoxicity toward NIH3T3 fibroblasts, dose response, counter-screen, cell-based, ATP luminescence, mouse fibroblasts (AID 2010); type: functional;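 note: cells exposed to compound for about 90 hours before reading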
Streptokinase A = molecular target: T8, Streptokinase A (Streptococcus pyogenes serotype M1, UniProt P10520); experiment: S. pyogenes streptokinase expression inhibitors, potency, dose response, plasminogen activation absorbance, OD405 (AID 1914); type: functional, Streptococcus pyogenes M1 GAS;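 note: secreted streptokinase activity via plasminogen activation per viability signal from cell pellet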
T8 sequence (P10520 whole entry): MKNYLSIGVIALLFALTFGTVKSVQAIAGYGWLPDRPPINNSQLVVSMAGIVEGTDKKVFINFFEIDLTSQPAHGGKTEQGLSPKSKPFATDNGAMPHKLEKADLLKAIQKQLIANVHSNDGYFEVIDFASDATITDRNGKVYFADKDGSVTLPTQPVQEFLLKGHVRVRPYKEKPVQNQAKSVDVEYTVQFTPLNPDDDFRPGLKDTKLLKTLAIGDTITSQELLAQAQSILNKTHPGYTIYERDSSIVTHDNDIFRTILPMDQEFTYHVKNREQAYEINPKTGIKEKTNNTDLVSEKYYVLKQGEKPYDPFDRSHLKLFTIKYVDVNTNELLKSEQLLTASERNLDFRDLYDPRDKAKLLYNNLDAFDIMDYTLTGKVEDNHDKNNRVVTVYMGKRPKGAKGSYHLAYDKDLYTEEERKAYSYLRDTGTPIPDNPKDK

[27] = insulin promoter down-regulators in MIN6 cells, imaging, high-content screening, mouse beta cells (AID 1628); type: functional
[28] = molecular target: T6, Kappa-type opioid receptor; type: functional; remark: listed apart in the source
[29] = microbe, parasite or virus in culture; type: functional; conditions: Mycobacterium tuberculosis
Streptococcus = experiment: Group A Streptococcus viability loss, dose response, counter-screen for streptokinase expression inhibitor project, luminescence, BacTiterGlo (AID 1915); type: functional, organism-based;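 note: potency for reduction of bacterial viability or growth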
Beta-galactosidase = Beta-galactosidase (Escherichia coli, UniProt Q8VNN2); type: functional
Sequence of Beta-galactosidase (Q8VNN2 whole entry): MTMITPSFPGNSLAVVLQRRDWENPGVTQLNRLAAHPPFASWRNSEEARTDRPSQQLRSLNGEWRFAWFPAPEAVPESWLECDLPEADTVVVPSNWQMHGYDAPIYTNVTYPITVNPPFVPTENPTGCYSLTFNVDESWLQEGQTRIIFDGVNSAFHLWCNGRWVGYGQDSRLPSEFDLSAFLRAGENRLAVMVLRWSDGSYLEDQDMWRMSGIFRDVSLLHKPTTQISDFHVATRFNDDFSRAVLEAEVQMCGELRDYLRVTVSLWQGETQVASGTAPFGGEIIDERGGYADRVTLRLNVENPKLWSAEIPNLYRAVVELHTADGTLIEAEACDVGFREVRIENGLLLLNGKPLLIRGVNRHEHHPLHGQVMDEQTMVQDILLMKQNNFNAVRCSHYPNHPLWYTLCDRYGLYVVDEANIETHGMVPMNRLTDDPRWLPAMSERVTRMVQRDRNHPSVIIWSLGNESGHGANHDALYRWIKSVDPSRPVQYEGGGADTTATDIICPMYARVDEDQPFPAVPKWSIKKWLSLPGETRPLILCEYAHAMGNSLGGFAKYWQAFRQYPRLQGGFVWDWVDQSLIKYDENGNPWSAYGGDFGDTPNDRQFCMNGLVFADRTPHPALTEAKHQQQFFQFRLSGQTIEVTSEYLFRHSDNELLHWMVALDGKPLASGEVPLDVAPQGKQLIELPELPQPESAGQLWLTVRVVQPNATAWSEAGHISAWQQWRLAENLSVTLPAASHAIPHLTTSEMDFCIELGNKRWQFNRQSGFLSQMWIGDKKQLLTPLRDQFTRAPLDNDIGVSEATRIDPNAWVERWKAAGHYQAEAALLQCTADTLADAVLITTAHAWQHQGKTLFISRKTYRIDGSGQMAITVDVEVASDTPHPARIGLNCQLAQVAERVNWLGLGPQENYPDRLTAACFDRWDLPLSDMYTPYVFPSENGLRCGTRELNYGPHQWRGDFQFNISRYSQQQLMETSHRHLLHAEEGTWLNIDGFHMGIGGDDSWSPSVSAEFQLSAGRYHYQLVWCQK

cells [30] = type: functional, cell-based; remark: listed apart in the source
[31] = HepG2 cell cytotoxicity, dose response, cytotoxicity control for Shn3 inhibitor project, CellTiter-Glo, cherry-picked (AID 624134); type: functional, cell-based

Structure (SMILES): O=C(Nc1ccc(Cl)c(Cl)c1)Nc1nnc(-c2ccncc2)s1
- IC50 [1]: 21.1 µM (active)
- IC50 [2]: 3.64 µM (active)
- IC50 [3]: 16.2 µM (active)
- CC50 [4]: 5.14 µM (active)
- IC50 [5]: 1.56 µM (active)
- IC50 [6]: 5.3 µM (active)
- IC50 [7]: > 64 µM (inactive)

Structure (SMILES): CCOC(=O)c1ccc(NC(=O)CCCN2C(=O)/C(=C/c3ccccc3)SC2=S)cc1
- IC50 [8]: > 100 µM (inactive)
- IC50 [9]: > 32 µM (inactive)
- IC50 [10]: > 100 µM (inactive)
- IC50 [11]: 94.2 µM (active)

Structure (SMILES): Oc1ccc(CN2CCc3ccccc3C2)c2cccnc12
- EC50 [12]: 7.5 µM (active)
- EC50 (cells [13]): 4.63 µM (active)
- IC50 (Nonstructural protein 1): 5.76 µM (active)
- EC50 [14]: 6.14 µM (active)
- AC50 [15]: 0.971 µM (active)
- EC50 [16]: 1.82 µM (active)
- EC50 (Mu-type opioid receptor): > 32 µM (inactive)
- AC50 [17]: 0.673 µM (active)
- EC50 [18]: 0.529 µM (active)
- IC50 [19]: 14 µM (active)
- EC50 [20]: < 0.1 µM (active)
- EC50 [21]: 0.528 µM (active)
- EC50 [22]: > 32 µM (inactive)
- EC50 [23]: 1.52 µM (active)
- IC50 [24]: 1.69 µM (active)
- IC50 [25]: > 32 µM (inactive)
- AC50 (INS1): 1.83 µM (active)
- EC50 [26]: 5.88 µM (active)
- EC50 (Streptokinase A): > 150 µM (not active)
- IC50 [27]: 1.96 µM (active)
- IC50 [28]: > 32 µM
- CC50 [29]: 1.62 µM (active)
- EC50 (Streptococcus): 13.8 µM (active)
- EC50 (Beta-galactosidase): > 31.5 µM (inactive)
- EC50 (cells [30]): > 350 µM (not active)
- AC50 [31]: 1.69 µM (active)
